Active and inactive are the calls of the source.
Tests used:
[1] = target: T1, Sentrin-specific protease 8 (Homo sapiens, UniProt Q96LD8); assay type: functional;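 note: luminescence read-out of SENP8 inhibition, dose-response confirmation following an ultra-high-throughput screen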
T1 sequence (Q96LD8 whole entry): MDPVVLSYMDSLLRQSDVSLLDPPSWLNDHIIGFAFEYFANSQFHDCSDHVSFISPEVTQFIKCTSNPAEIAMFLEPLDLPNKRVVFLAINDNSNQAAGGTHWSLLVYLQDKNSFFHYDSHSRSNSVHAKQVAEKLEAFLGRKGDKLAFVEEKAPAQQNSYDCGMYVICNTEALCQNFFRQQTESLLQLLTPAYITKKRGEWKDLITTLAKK

[2] = target: T2, Sentrin-specific protease 7 (Homo sapiens, UniProt Q9BQF6); assay type: functional;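 note: Luminescence-based dose-response confirmation of ultra-high-throughput screening hits, measuring inhibition of SENP7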
T2 sequence (Q9BQF6 whole entry): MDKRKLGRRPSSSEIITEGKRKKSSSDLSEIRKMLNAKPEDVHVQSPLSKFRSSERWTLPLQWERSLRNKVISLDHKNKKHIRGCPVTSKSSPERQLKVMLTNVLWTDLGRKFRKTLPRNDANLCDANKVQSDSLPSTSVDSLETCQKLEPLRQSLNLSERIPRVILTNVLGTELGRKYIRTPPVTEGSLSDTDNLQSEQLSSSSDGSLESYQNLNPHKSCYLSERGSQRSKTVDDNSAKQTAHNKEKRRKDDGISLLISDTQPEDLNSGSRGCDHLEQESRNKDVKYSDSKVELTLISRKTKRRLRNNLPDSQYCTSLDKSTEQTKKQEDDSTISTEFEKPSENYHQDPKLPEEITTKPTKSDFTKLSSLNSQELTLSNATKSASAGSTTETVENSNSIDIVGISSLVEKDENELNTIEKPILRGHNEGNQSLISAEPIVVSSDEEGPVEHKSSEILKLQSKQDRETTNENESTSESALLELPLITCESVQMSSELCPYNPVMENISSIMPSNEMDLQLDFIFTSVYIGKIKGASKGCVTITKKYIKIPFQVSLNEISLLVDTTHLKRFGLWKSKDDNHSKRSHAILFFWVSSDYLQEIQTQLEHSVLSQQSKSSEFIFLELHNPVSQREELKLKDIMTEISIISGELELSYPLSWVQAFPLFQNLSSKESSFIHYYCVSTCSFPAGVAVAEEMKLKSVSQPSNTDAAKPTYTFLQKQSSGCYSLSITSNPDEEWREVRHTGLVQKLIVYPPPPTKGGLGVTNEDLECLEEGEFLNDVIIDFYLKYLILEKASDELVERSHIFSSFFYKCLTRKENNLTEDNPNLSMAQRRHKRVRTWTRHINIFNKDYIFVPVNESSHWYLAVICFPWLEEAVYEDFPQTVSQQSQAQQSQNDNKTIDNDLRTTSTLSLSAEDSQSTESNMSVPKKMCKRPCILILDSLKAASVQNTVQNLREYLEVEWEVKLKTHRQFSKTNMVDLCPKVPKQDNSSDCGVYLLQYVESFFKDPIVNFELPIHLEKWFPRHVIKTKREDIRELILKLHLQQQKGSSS

[3] = target: T3, Caspase-3 (Homo sapiens, UniProt P42574); assay type: functional;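 note: Dose-response selectivity test against caspase-3 for candidate inhibitors of sentrin-specific proteases (SENPs)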
T3 sequence (P42574 whole entry): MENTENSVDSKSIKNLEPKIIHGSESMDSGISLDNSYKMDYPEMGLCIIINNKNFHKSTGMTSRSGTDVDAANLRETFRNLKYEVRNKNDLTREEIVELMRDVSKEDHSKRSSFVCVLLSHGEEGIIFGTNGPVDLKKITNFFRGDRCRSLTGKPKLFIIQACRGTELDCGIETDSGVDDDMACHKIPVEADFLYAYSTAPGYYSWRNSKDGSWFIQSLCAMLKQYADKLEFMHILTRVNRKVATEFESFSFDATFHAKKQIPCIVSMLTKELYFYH

[4] = target: T4, 1-phosphatidylinositol 4,5-bisphosphate phosphodiesterase gamma-1 (Homo sapiens, UniProt P19174); experiment: Counterscreen for inhibitors of phospholipase C isozymes (PLC-B3): Fluorescence-based biochemical high throughput dose response assay to identify inhibitors of phospholipase C isozymes (PLC-gamma1).
T4 sequence (P19174 whole entry): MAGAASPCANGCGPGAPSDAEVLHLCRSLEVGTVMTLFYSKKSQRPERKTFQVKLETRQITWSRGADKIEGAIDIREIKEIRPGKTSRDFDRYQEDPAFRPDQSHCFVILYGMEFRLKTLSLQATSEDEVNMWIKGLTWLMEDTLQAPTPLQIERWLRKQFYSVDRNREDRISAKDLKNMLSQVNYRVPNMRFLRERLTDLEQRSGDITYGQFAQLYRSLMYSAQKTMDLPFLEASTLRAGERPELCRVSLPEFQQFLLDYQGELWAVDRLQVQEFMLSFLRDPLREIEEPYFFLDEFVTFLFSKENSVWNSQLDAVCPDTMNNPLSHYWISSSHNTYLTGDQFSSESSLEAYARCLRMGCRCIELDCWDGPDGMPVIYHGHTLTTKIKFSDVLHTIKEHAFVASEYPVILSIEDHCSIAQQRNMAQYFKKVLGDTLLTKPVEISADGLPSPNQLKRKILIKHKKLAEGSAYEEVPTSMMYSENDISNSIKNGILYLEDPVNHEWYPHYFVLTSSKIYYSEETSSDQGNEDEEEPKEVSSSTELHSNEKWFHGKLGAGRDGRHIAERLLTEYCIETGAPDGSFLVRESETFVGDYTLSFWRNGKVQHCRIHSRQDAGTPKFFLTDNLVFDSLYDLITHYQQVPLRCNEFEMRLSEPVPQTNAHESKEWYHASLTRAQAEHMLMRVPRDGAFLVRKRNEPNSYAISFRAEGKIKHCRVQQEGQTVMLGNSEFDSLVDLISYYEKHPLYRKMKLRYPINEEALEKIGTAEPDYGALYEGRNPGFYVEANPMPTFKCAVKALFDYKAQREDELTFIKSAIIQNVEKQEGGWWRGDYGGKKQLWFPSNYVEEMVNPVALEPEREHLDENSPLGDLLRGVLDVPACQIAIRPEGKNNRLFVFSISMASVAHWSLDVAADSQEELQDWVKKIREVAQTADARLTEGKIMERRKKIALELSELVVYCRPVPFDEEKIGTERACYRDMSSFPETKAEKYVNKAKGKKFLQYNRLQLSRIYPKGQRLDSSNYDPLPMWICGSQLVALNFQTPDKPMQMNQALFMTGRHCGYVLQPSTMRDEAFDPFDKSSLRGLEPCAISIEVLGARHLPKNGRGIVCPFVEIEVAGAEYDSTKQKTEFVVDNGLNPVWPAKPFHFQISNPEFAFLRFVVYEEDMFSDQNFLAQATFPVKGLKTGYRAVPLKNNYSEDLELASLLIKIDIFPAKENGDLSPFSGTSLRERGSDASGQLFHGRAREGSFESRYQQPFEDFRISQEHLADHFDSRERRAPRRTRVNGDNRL

[5] = target: Interleukin-1 receptor-associated kinase 1 (Homo sapiens, UniProt P51617); assay type: functional;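 note: IRAK1 tested as one member of a kinome panel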
[6] = target: Serine/threonine-protein kinase N2 (Homo sapiens, UniProt Q16513); assay type: functional
[7] = target: Cyclin-dependent kinase 2 (Homo sapiens, UniProt P24941); assay type: functional;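 note: CDK2 measured as one member of a broad kinome profiling panel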

Serine/threonine-protein kinase N2, sequence (Q16513 whole entry): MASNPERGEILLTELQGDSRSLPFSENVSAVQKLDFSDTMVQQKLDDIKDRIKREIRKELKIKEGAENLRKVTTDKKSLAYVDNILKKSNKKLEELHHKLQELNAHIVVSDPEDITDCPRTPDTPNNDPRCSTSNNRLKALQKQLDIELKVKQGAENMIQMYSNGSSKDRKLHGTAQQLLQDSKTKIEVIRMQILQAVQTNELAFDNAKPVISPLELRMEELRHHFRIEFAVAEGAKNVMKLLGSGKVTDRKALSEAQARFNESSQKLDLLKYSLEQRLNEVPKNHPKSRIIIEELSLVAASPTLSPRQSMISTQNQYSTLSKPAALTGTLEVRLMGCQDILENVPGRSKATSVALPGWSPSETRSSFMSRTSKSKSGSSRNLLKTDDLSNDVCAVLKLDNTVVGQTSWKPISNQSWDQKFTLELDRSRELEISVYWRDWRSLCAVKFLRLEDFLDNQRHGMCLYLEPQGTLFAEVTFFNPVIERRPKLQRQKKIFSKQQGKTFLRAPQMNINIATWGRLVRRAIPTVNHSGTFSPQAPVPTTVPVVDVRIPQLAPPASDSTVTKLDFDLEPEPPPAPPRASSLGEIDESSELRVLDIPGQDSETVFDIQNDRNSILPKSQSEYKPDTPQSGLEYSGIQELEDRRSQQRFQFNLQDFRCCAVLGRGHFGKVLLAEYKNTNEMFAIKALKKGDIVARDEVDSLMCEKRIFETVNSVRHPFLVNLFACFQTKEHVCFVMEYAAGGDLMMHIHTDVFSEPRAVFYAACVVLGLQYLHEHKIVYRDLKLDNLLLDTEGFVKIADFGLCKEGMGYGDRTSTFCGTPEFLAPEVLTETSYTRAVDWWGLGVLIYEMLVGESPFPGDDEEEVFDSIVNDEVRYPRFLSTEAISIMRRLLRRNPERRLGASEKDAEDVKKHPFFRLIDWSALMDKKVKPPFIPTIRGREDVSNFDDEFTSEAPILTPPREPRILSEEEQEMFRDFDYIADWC
Interleukin-1 receptor-associated kinase 1, sequence (P51617 whole entry): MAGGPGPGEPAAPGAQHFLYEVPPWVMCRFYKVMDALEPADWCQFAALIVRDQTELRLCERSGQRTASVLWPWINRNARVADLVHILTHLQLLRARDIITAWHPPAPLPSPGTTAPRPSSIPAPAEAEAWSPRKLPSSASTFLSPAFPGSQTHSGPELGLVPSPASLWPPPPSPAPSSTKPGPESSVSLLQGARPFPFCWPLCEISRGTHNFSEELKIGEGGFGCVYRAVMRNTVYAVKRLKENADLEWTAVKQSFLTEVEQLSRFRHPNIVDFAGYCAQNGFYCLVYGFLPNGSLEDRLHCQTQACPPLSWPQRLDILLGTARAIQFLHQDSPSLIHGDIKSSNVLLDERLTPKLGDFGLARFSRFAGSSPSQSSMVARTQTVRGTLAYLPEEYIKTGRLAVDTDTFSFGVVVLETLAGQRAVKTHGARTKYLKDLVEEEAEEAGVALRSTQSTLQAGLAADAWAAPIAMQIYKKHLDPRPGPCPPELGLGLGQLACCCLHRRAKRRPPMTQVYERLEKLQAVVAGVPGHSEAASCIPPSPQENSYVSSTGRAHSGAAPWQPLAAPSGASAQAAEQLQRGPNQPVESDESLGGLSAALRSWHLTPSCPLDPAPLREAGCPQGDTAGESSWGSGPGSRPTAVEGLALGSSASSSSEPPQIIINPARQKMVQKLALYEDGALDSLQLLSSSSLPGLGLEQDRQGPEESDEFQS

Compound | IC50 [1] | IC50 [2] | IC50 [3] | IC50 [4] | also measured
CN(C)S(=O)(=O)Oc1cccc(C(=O)Nc2ccc(Cl)c(Cl)c2)c1 | 19.6 µM (active) | 5.38 µM (active) | 52.2 µM (active) |  | 
Cc1ccc2[nH]c(/C(C#N)=C/c3ccc(O)c(O)c3)nc2c1 | 24.3 µM (active) | 9.9 µM (active) | 28.1 µM (active) |  | 
O=C(NN1C(=O)CSC1=S)C(=O)NN1C(=O)CSC1=S |  |  |  | 4.36 µM (active) | 
Nc1noc2cccc(-c3cccc(O)c3)c12 |  |  |  |  | Ki [5]: > 7.94 µM (inactive); Ki [6]: > 7.94 µM (inactive); Ki [7]: > 7.94 µM (inactive)
O=C1NC(=S)S/C1=C\C=C\c1ccc([N+](=O)[O-])o1 |  |  |  | > 122 µM (inactive) | 

Reference: ChEMBL document CHEMBL1201862, “PubChem BioAssay data set” (2004)
